# Several values for one entry are separate records, joined by “and”; a condition that tells them apart may be missing. Equal entries are not always repeated. Where two headings read alike, the source gives them in different places.
# Key:
# [1] = system: neuromast ciliated cells of Zebrafish; assay: Ototoxicity induced by gentamycin in Zebrafish: protection of neuromast ciliated cells (DASPEI staining); type: in vivo; details: for EC50: Danio rerio, 0, 25, 50, 100 μM, co-treatment with gentamycin 1 μg/ml, concentration which allows 50% of stained cells to be visualized, read-out: EC50 μM (survival of the ciliated cells in % of the control); for control % (% staining signal of the ciliated cells): positive control = 100%
# From the text: Ototoxicity Induced after a Treatment with Gentamycin: Protective Effect of the Compounds According to the Invention
# Principle of the test: gentamycin and other aminoglycosides cause damage to ciliated cells and a hearing loss in humans. Zebrafish have sensory organs known as neuromasts on the surface of their body. These neuromast ciliated cells are structurally and functionally similar to the internal ciliated cells of the human ear. In these fish, the neuromast ciliated cells can be stained with DASPEI (2,4-dimethyl-aminostyryl-N-ethyl pyridinium iodide) and this staining reflects the number of functional ciliated cells.
# Damage to the internal ciliated cells is induced in the Zebrafish with a gentamycin treatment. In order to test the protective effect of the compound to be tested on ciliated cells damaged by gentamycin, the compound was administered as a co-treatment with gentamycin. The internal ciliated cells are then stained and quantified.
# The study is carried out on 5-day old fish, incubated with 1 μg/ml of gentamycin for 24 hours in the presence or the absence of the compound. Controls are carried out in parallel; vehicle alone (1% DMSO; positive control). Fish treated with gentamycin only are the negative controls.
# The EC50 (concentration of the substance to be tested which protects 50% of the cells from cell death) is calculated from this concentration-effect.
# The DASPEI staining is carried out to visualize the ciliated cells in vivo (n=6 per group). Morphometric analysis is used to quantify the staining signal of the ciliated cells. The DASPEI staining signal of the positive controls was defined as 100%.
# Positive control (Zebrafish-1% DMSO); Negative control (Zebrafish-1% DMSO-gentamycin 1 μg/ml) and effect of the products (Zebrafish-1% DMSO-gentamycin-compound). Experiment carried out on 6 animals per group.
# calpain = assay: Effect in situ on the calpain enzymatic activity of human skeletal cells (SKM), maitotoxin-activated, Suc-Leu-Tyr-AMC substrate; type: cell-based; details: read-out: IC50 (concentration which inhibits 50% of the enzyme activity), SKM myotubes, 3 h at 30° C.
# Protocol: Effect In Situ of the Compounds According to the Invention on the Calpain Enzymatic Activity of Human Skeletal Cells (SKM)
# The principle of the test is the following: maitotoxin is a toxin which causes the opening of the calcium channels of cells. The resulting intra-cellular flow of calcium is at the origin of the death of the cell. During this process of cell death, a cysteine-dependent protease, calpain, is activated. The test consists of incubating the cells in the presence of maitotoxin, in order to activate the calpain enzyme, and adding a calpain substrate which fluoresces when the enzyme cleaves this substrate. Finally, calpain inhibitors are tested.
# The myoblasts are seeded at 2500 cells per well in 96-well plates in a DMEM 10% FCS (foetal calf serum) culture medium supplemented with amphotericin B, human recombinant epidermal growth factor and dexamethasone. Three days after seeding, the cells have adhered to the bottom of the well, the differentiation of the cells to myotubes is induced by adding 100 μl of DMEM F12 medium containing 2% horse serum. […] The background noise is determined by preparing additional control wells without MTX. […] The plates are stirred, the fluorescence is read at 380/460 nm using a so-called Victor device at time zero. […]
# The fluorescence values make it possible to calculate a concentration-effect for each of the compounds. […]
# [2] = system: human skeletal cells (SKM); assay: Protective effect on cell death induced by maitotoxin on human skeletal cells (SKM), WST-1; type: cell-based; details: read-out: EC50 (concentration which protects 50% of the cells from cell death)
# From the text: Protective Effect of the Compounds According to the Invention on Cell Death Induced by Maitotoxin on Human Skeletal Cells (SKM)
# The principle of the test is the following: maitotoxin is a toxin which causes the opening of the calcium channels of cells. The resulting intra-cellular flow of calcium is at the origin of the death of the cell. During this process of cell death, a cysteine-dependent protease, calpain, is activated, and an abundance of free radicals is produced. The test consists of incubating the cells in the presence of the molecules to be tested, in order to delay or inactivate cell death and thus determine the protective effect.
# The myoblasts are seeded at 2500 cells per well in 96-well plates in a DMEM 10% FCS (foetal calf serum) culture medium supplemented with amphotericin B, human recombinant epidermal growth factor and dexamethasone. […]
# After an incubation time of 3 h or 96 h, the culture medium is replaced by a DMEM 10% FCS medium supplemented by 10% WST-1, WST-1 (Roche, reference 1644807) is a reagent which stains metabolically active cells, i.e. live cells. […] Then the number of live cells is determined using a Perkin-Elmer Wallac Envision 2101 device by reading the absorbance at 450 nm. The concentration-effect of the products on the cell survival fraction is then calculated. […]
# [3] = compound 50 μM as co-treatment with gentamycin 1 μg/ml
compound,measurement,setting,value
"CC(=O)OC1OCC[C@@H]1NC(=O)[C@H](CC(C)C)NC(=N)c1ccc2c(c1)Nc1ccccc1S2.I (stereo partly drawn) [Example 4, (3S)-3-({N-[imino(10H-phenothiazin-2-yl)methyl]-L-leucyl}amino)tetrahydrofuran-2-yl acetate hydroiodide]",EC50,[1],51 µM
same,protection of the ciliated cells damaged by the gentamycin treatment,[1]; [3],36.2%
same,control % (% staining signal of the ciliated cells),"[1]; compound 50 μM as co-treatment with gentamycin 1 μg/ml, 24 hours, 5-day old fish, acetate hydroiodide",49% and 49 ± 5%
"CC(C)C[C@H](NC(=N)c1ccc2c(c1)Nc1ccccc1S2)C(=O)N[C@H]1CCOC1O.I (stereo partly drawn) [Example 5, N^1-[(3S)-2-hydroxytetrahydrofuran-3-yl]-N^2-[imino(10H-phenothiazin-2-yl)methyl]-L-leucinamide hydroiodide]",IC50,calpain,< 20 µM
same,EC50,[1],32 µM
same,protection of the ciliated cells damaged by the gentamycin treatment,[1]; [3],40%
same,control % (% staining signal of the ciliated cells),"[1]; compound 50 μM as co-treatment with gentamycin 1 μg/ml, 24 hours, 5-day old fish, hydroiodide",52% and 52 ± 10%
C[C@H]1C[C@@H]2[C@H]([C@@H](O)C[C@@]3(C)[C@H]2CC[C@]3(O)C(=O)CO)[C@@]2(C)C=CC(=O)C=C12 [a-methylprednisolone],EC50,[2]; after incubation for 3 hours in the presence of maitotoxin,354 µM
same,EC50,[2]; after incubation for 96 hours in the presence of maitotoxin,196 µM
Gentamycin [reference compound],loss of the ciliated cells following treatment with gentamycin,"[1]; gentamycin 1 μg/ml alone, 24 hours",80%
same,control % (% staining signal of the ciliated cells),"[1]; gentamycin 1 μg/ml alone, 24 hours (negative control)",20 ± 0.6%
same,control % (% staining signal of the ciliated cells),"[1]; gentamycin 1 μg/ml alone, 24 hours (negative control), listed as gentamycin",20%
